Drawing on patent US20250122171A1, “Substituted Amine Compounds, Compositions and Methods of Use” (Deep Apple Therapeutics, Inc., priority 2023, published 2025), this text covers IC50 for 26 compounds.

The assay has as its target T1, human MRGPRX2 (Homo sapiens, UniProt Q96LB1).
T1 construct: expressed in transfected cells; host or cells: FlpIn TRex HEK293 (TRex-MRGPRX2-HEK), doxycycline-induced
T1 sequence (Q96LB1 1-330): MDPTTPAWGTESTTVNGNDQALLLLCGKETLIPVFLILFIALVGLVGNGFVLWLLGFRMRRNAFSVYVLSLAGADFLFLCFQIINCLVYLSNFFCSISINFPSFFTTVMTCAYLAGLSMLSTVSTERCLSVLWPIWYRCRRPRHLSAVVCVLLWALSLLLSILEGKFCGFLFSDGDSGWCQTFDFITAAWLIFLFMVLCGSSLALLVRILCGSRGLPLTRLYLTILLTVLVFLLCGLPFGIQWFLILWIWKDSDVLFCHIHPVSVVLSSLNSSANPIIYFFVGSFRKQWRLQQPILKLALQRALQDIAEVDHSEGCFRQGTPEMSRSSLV
Put plainly: MRGPRX2 Activity Assay (IP-1 HTRF, antagonist mode). The settings on record: FlpIn TRex-MRGPRX2-HEK293 cells; versus 1 μM Cortistatin-14 agonist; 30 minutes preincubation. In kind it is cell-based. Here is the method: FlpIn TRex-MRGPRX2-HEK293 cells (herein TRex-MRPGRX2-HEK) stably transfected to express human MRGPRX2 were maintained at 37° C. with 5% CO2 and grown in DMEM supplemented with 10% FBS, 1% L-Glutamate, 1% penicillin/streptomycin, 100 ug/mL Hygromycin B, and 15 ug/mL Blasticidin.
GOI (MRGPRX2) expression was induced with 100 ng/mL of Doxycycline 18-24 hours prior to experiment, in flask. On the day of experiment, cells were lifted with TripLE Express and seeded in 384-well white walled opaque bottomed, assay plates, at 8,000 cells per well in 5 uL freshly made assay buffer (HBSS, 20 mM HEPES, 0.1% BSA and 10 mM LiCl). Compounds solubilized in 100% DMSO at 30 mM were serially diluted (1:4) first in 100% DMSO, and an intermediate plate of assay buffer was used to establish a final top concentration of 30 uM (in assay plate). Final DMSO concentration was kept constant at 1% across assay plates. […], at 30 mM stock concentration was solubilized in HBSS+0.1% BSA, stored at −20° C. in 5 μL aliquots and discarded after one freeze-thaw cycle. […].
Antagonist equilibrium was established with 30 minutes preincubation, followed by no wash, direct addition, and stimulation of agonist for 1 hour at 37° C./5% CO2. IP-1 standards and HTRF detection reagents were added according to the IP-one Gq kit protocol purchased from CisBio (part number 62IPAPEJ). The plate was read on an EnVision XCite plate reader. The HTRF ratio was then calculated from raw data (channel1/channel2×10,000) and analyzed using either GraphPad Prism or a custom Python script to calculate IC50 using Log[Antagonist] vs. response (4 parameter) nonlinear regression.
(TR-FRET usually uses a lanthanide donor and a delayed reading to cut background.)
Consider `C[C@@H](C(=O)Nc1cn2c(n1)CC[C@@H]2c1cc(F)cc(F)c1)N1CCC(F)(F)[C@H](c2cc[n+]([O-])c(CO)c2)C1` (single isomer, unassigned) [Compound 526], for which the half-maximal inhibitory concentration (IC50) (usually the concentration that inhibits the measured activity by half) is 9.8 nM.

As to `C[C@@H](C(=O)Nc1cn2c(n1)CC[C@@H]2c1cc(F)cc(F)c1)N1CCC(F)(F)[C@@H](c2c[nH]c(=O)cn2)C1` (single isomer, unassigned) [Compound 527], the IC50 was found to be 102 nM.

For the compound `C[C@@H](C(=O)Nc1cn2c(n1)CC[C@@H]2c1cc(F)cc(F)c1)N1CCC(F)(F)[C@H](c2c[nH]c(=O)cn2)C1` (single isomer, unassigned) [Compound 528], the IC50 worked out at 6.8 nM.

As to `C[C@@H](C(=O)Nc1cn2c(n1)CC[C@@H]2c1cc(F)cc(F)c1)N1CCC(F)(F)[C@@H](c2ccc(=O)n(C)c2)C1` (single isomer, unassigned) [Compound 532], the concentration for half-maximal inhibition (IC50) was 5200 nM.

Take `C[C@@H](C(=O)Nc1cn2c(n1)CC[C@@H]2c1cc(F)cc(F)c1)N1CCC(F)(F)[C@H](c2ccc(=O)n(C)c2)C1` (single isomer, unassigned) [Compound 533]: the IC50 stood at 18 nM.

With `C[C@@H](C(=O)Nc1cn2c(n1)CC[C@@H]2c1cc(F)cc(F)c1)N1CCC(F)(F)[C@@H](c2cc[n+]([O-])c(CN3CCC(F)(F)CC3)c2)C1` (single isomer, unassigned) [Compound 534], the half-inhibitory concentration (IC50) was > 30000 nM.

`C[C@@H](C(=O)Nc1cn2c(n1)CC[C@@H]2c1cc(F)cc(F)c1)N1CCC(F)(F)[C@H](c2cc[n+]([O-])c(CN3CCC(F)(F)CC3)c2)C1` (single isomer, unassigned) [Compound 535]: the IC50 was found to be 31 nM.

The compound `C[C@@H](C(=O)Nc1cc2n(n1)CC[C@@H]2c1cc(F)cc(F)c1)N1CCC(F)(F)[C@@H](c2cc[n+]([O-])cc2)C1` (single isomer, unassigned) [Compound 549] displayed an IC50 of 439 nM.

`C[C@@H](C(=O)Nc1cc2n(n1)CC[C@H]2c1cc(F)cc(F)c1)N1CCC(F)(F)[C@@H](c2cc[n+]([O-])cc2)C1` (single isomer, unassigned) [Compound 550] showed an IC50 of 6 nM.

For the compound `O=C(Nc1cn(Cc2cc(F)cc(F)c2)cn1)[C@H]1C(F)(F)C12CCC2` [Compound 30, (S)—N-(1-(3,5-difluorobenzyl)-1H-imidazol-4-yl)-2,2-difluorospiro[2.3]hexane-1-carboxamide], the half-inhibitory concentration (IC50) worked out at 258 nM.

As for `C[C@@H](C(=O)Nc1cn(Cc2ccc(Cl)cc2F)cn1)N1CCC(F)(F)[C@@H](c2cc[n+]([O-])cc2)C1` [Compound 31, 4-((S)-1-((S)-1-((1-(4-chloro-2-fluorobenzyl)-1H-imidazol-4-yl)amino)-1-oxopropan-2-yl)-4,4-difluoropiperidin-3-yl)pyridine 1-oxide], the IC50 stood at 361 nM.

As for `C[C@@H](C(=O)Nc1cn(Cc2cc(F)c(F)c(F)c2F)cn1)N1CCC(F)(F)[C@@H](c2cc[n+]([O-])cc2)C1` [Compound 32, 4-[(3S)-4,4-difluoro-1-[(1S)-1-({1-[(2,3,4,5-tetrafluorophenyl)methyl]imidazol-4-yl}carbamoyl)ethyl]piperidin-3-yl]pyridin-1-ium-1-olate], the concentration for half-maximal inhibition (IC50) worked out at 104 nM.

Turning to `C[C@@H](C(=O)Nc1cn(Cc2cc(Cl)ccc2F)cn1)N1CCC(F)(F)[C@@H](c2cc[n+]([O-])cc2)C1` [Compound 33, 4-((S)-1-((S)-1-((1-(5-chloro-2-fluorobenzyl)-1H-imidazol-4-yl)amino)-1-oxopropan-2-yl)-4,4-difluoropiperidin-3-yl)pyridine 1-oxide], the IC50 is 30 nM.

In the case of `C[C@@H](C(=O)Nc1cn(Cc2ccc(F)cc2)cn1)N1CCC(F)(F)[C@@H](c2cc[n+]([O-])cc2)C1` [Compound 36, 4-((S)-4,4-difluoro-1-((S)-1-((1-(4-fluorobenzyl)-1H-imidazol-4-yl)amino)-1-oxopropan-2-yl)piperidin-3-yl)pyridine 1-oxide], the IC50 came out at 209 nM.

Consider `C[C@@H](C(=O)Nc1cn(Cc2ccccc2F)cn1)N1CCC(F)(F)[C@@H](c2cc[n+]([O-])cc2)C1` [Compound 37, 4-((S)-4,4-difluoro-1-((S)-1-((1-(2-fluorobenzyl)-1H-imidazol-4-yl)amino)-1-oxopropan-2-yl)piperidin-3-yl)pyridine 1-oxide], for which the IC50 was 54 nM.

As to `C[C@@H](C(=O)Nc1cn(Cc2cccc(F)c2)cn1)N1CCC(F)(F)[C@@H](c2cc[n+]([O-])cc2)C1` [Compound 38, 4-((S)-4,4-difluoro-1-((S)-1-((1-(3-fluorobenzyl)-1H-imidazol-4-yl)amino)-1-oxopropan-2-yl)piperidin-3-yl)pyridine 1-oxide], the IC50 amounted to 93 nM.

As to `C[C@@H](C(=O)Nc1cn(Cc2cc(F)ccc2F)cn1)N1CCC(F)(F)[C@@H](c2cc[n+]([O-])cc2)C1` [Compound 40, 4-((S)-1-((S)-1-((1-(2,5-difluorobenzyl)-1H-imidazol-4-yl)amino)-1-oxopropan-2-yl)-4,4-difluoropiperidin-3-yl)pyridine 1-oxide], the 50% inhibitory concentration (IC50) was found to be 25 nM.

The compound `C[C@@H](C(=O)Nc1cn(Cc2ccccc2C(F)(F)F)cn1)N1CCC(F)(F)[C@@H](c2cc[n+]([O-])cc2)C1` [Compound 41, 4-((S)-4,4-difluoro-1-((S)-1-oxo-1-((1-(2-(trifluoromethyl)benzyl)-1H-imidazol-4-yl)amino)propan-2-yl)piperidin-3-yl)pyridine 1-oxide] registered an IC50 of 269 nM.

The compound `C[C@@H](C(=O)Nc1cn(Cc2ccc(F)c(F)c2F)cn1)N1CCC(F)(F)[C@@H](c2cc[n+]([O-])cc2)C1` [Compound 42, 4-((S)-4,4-difluoro-1-((S)-1-oxo-1-((1-(2,3,4-trifluorobenzyl)-1H-imidazol-4-yl)amino)propan-2-yl)piperidin-3-yl)pyridine 1-oxide] had an IC50 of 169 nM.

Compound `C[C@@H](C(=O)Nc1cn(Cc2cccc(Cl)c2)cn1)N1CCC(F)(F)[C@@H](c2cc[n+]([O-])cc2)C1` [Compound 43, 4-((S)-1-((S)-1-((1-(3-chlorobenzyl)-1H-imidazol-4-yl)amino)-1-oxopropan-2-yl)-4,4-difluoropiperidin-3-yl)pyridine 1-oxide] yielded a concentration for half-maximal inhibition (IC50) of 131 nM.

`C[C@@H](C(=O)Nc1cn(Cc2cc(F)c(Cl)c(F)c2)cn1)N1CCC(F)(F)[C@@H](c2cc[n+]([O-])cc2)C1` [Compound 44, 4-((S)-1-((S)-1-((1-(4-chloro-3,5-difluorobenzyl)-1H-imidazol-4-yl)amino)-1-oxopropan-2-yl)-4,4-difluoropiperidin-3-yl)pyridine 1-oxide] returned a 50% inhibitory concentration (IC50) of 241 nM.

In turn, `C[C@@H](C(=O)Nc1cn(Cc2cc(F)c(Cl)cc2F)cn1)N1CCC(F)(F)[C@@H](c2cc[n+]([O-])cc2)C1` [Compound 45, 4-((S)-1-((S)-1-((1-(4-chloro-2,5-difluorobenzyl)-1H-imidazol-4-yl)amino)-1-oxopropan-2-yl)-4,4-difluoropiperidin-3-yl)pyridine 1-oxide] displayed an IC50 of 885 nM.

`C[C@@H](C(=O)Nc1cn(Cc2ccc(F)c(F)c2)cn1)N1CCC(F)(F)[C@@H](c2cc[n+]([O-])cc2)C1` [Compound 46, 4-((S)-1-((S)-1-((1-(3,4-difluorobenzyl)-1H-imidazol-4-yl)amino)-1-oxopropan-2-yl)-4,4-difluoropiperidin-3-yl)pyridine 1-oxide] registered an IC50 of 210 nM.

In turn, `C[C@@H](C(=O)Nc1cn(Cc2ccc(Cl)c(F)c2)cn1)N1CCC(F)(F)[C@@H](c2cc[n+]([O-])cc2)C1` [Compound 47, 4-((S)-1-((S)-1-((1-(4-chloro-3-fluorobenzyl)-1H-imidazol-4-yl)amino)-1-oxopropan-2-yl)-4,4-difluoropiperidin-3-yl)pyridine 1-oxide] yielded a half-maximal inhibitory concentration (IC50) of 775 nM.

The compound `C[C@@H](C(=O)Nc1cn(Cc2ccc(F)cc2Cl)cn1)N1CCC(F)(F)[C@@H](c2cc[n+]([O-])cc2)C1` [Compound 48, 4-((S)-1-((S)-1-((1-(2-chloro-4-fluorobenzyl)-1H-imidazol-4-yl)amino)-1-oxopropan-2-yl)-4,4-difluoropiperidin-3-yl)pyridine 1-oxide] yielded a half-inhibitory concentration (IC50) of 214 nM.

Compound `C[C@@H](C(=O)Nc1cn(Cc2cccc(F)c2F)cn1)N1CCC(F)(F)[C@@H](c2cc[n+]([O-])cc2)C1` [Compound 49, 4-((S)-1-((S)-1-((1-(2,3-difluorobenzyl)-1H-imidazol-4-yl)amino)-1-oxopropan-2-yl)-4,4-difluoropiperidin-3-yl)pyridine 1-oxide] yielded an IC50 of 53 nM.
